Patent publication US11807612B2, “Heterocyclic compound and salt thereof, and luminescent substrate composition” (The University of Electro-Communications, priority 2020, dated 2023)

Columns and labels:
[1] = molecular target: T1, Ppy luciferase (derived from North American firefly Photinus pyralis) (Photinus pyralis, UniProt P08659); assay: Luminescence spectrum measurement of luminescent substrates with Ppy luciferase, ATP-Mg; type: biochemical; details: for peak top wavelength of luminescence spectrum: substrate solution 100 μM, 1 mg/mL Ppy luciferase, 200 μM ATP-Mg, KPB pH 8.0, room temperature, 180 seconds, FIG. 1
T1 construct: purchased Promega Corporation E1701
Protocol: The luminescent substrates represented by structural formulae (1-1) and (1-2) that were synthesized as described above, a luminescent substrate represented by the following structural formula (b), and natural firefly luciferin (LH2, produced by Wako Pure Chemical Industries, Ltd.) represented by the following structural formula (d) were each used to measure a luminescence spectrum. Note that the luminescent substrate represented by structural formula (b) was prepared in accordance with Example 1 of JP2014-218456A (PTL 2).
A weak emission fluorescence spectrometer AB-1850 produced by ATTO Corporation was used to measure a luminescence spectrum. Each measured spectrum is a spectrum that has been corrected for detector characteristics (data interval 0.25 nm, measurement range 400 nm to 750 nm).
Recombinant luciferase (QuantiLum® (QuantiLum is a registered trademark in Japan, other countries, or both), catalogue no. E1701) produced by Promega Corporation
After mixing 5 μL of KPB solution (pH 8.0, 500 mM), 5 μL of luminescent substrate solution (100 μM), 5 μL of 1 mg/mL Ppy luciferase solution, and 10 μL of 200 μM ATP-Mg solution at room temperature, luminescence spectrum measurement was performed for 180 seconds using the luminescence spectrum measurement apparatus (AB-1850). The luminescence intensity was compared by the peak top value at this time. The results are illustrated in FIG. 1 and FIG. 2.
FIG. 1 is a luminescence spectrum normalized to give a maximum value for luminescence intensity of 1, and FIG. 2 is a luminescence spectrum illustrating luminescence intensity at each wavelength.

[2] = molecular target: firefly luciferase (Luc) (Photinus pyralis, UniProt P08659); details: firefly luminescence system; background, PTL 1 to 3; cited from earlier work
Sequence of firefly luciferase (Luc) (P08659 whole entry): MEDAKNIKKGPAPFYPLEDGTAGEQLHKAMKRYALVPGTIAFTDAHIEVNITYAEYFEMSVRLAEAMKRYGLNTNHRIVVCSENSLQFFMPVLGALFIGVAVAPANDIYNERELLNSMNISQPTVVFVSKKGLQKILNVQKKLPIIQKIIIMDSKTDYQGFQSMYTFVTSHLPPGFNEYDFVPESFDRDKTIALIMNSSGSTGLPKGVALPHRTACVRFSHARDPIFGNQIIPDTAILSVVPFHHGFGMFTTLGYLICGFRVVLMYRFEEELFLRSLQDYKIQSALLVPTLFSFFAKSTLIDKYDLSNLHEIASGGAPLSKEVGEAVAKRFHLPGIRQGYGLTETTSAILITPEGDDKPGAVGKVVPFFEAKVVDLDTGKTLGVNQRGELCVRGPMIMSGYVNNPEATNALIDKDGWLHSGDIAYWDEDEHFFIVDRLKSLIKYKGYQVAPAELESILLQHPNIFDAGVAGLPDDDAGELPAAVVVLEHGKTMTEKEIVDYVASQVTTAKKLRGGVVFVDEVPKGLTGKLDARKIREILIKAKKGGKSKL

T1 sequence (P08659 whole entry): as above

CN(C)c1cnc(/C=C/C=C/C2=N[C@@H](C(=O)O)CS2)s1 [structural formula (1-2), (S)-2-((1E,3E)-4-(5-(dimethylamino)thiazol-2-yl)buta-1,3-dien-1-yl)-4,5-dihydrothiazole-4-carboxylic acid]
luminescence intensity (peak top value) relative to luminescent substrate of structural formula (b) ([1]; same conditions, FIGS. 1 and 2): approximately four times higher
luminescence intensity (peak top value) relative to natural firefly luciferin ([1]; same conditions, FIGS. 1 and 2): approximately half
peak top wavelength of luminescence spectrum [1]: approximately 680 nm

CN(C)c1ncc(/C=C/C=C/C2=N[C@@H](C(=O)O)CS2)s1 [structural formula (1-1), (S)-2-((1E,3E)-4-(2-(dimethylamino)thiazol-5-yl)buta-1,3-dien-1-yl)-4,5-dihydrothiazole-4-carboxylic acid]
luminescence intensity (peak top value) relative to luminescent substrate of structural formula (b) ([1]; same conditions, FIGS. 1 and 2): approximately four times higher
luminescence intensity (peak top value) relative to natural firefly luciferin ([1]; same conditions, FIGS. 1 and 2): approximately half
luminescence wavelength compared with luminescent substrate of structural formula (b) ([1]; same conditions, FIGS. 1 and 2): shorter wavelength
peak top wavelength of luminescence spectrum [1]: approximately 630 nm

CN(C)c1ccc(/C=C/C=C/C2=N[C@@H](C(=O)O)CS2)cc1 [structural formula (a)]
maximum wavelength of luminescence spectrum / wavelength of emitted light [2]: roughly 670 nm

O=C(O)[C@H]1CSC(c2nc3ccc(O)cc3s2)=N1 [natural firefly luciferin, firefly luciferin]
maximum wavelength of luminescence spectrum / wavelength of emitted light [2]: approximately 560 nm

CN(C)c1ccc(/C=C/C=C/C2=N[C@@H](C(=O)O)CS2)nc1 [structural formula (c)]
maximum wavelength of luminescence spectrum / wavelength of emitted light [2]: roughly 670 nm
